22 compounds from patent US8415359B2, “Phenylpyrrole derivative” (Daiichi Sankyo Company, Limited, priority 2008, dated 2013) can be followed below.

In this assay the target is T1, human pancreatic GK (human glucokinase variant 1, GST-fused protein) (Homo sapiens, UniProt P35557).
T1 construct: made in house; host or cells: Escherichia coli (such as BL21 or JM109)
T1 sequence (P35557 1-465): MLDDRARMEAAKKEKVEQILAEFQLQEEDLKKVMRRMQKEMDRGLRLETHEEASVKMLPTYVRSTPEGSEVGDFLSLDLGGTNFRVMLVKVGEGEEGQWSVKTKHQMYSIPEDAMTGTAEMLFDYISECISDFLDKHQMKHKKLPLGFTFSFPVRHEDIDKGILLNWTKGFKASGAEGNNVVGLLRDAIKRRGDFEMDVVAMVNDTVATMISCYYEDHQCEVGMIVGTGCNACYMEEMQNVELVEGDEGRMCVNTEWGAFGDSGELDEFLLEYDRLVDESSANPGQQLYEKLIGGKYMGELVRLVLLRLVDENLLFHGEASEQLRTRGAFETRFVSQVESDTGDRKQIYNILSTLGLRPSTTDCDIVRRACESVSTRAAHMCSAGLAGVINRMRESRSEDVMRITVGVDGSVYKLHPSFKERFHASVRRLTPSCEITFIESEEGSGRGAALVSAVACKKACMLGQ
As to the kind of experiment: GK activity test (GK activation rate). It counts as biochemical. As to conditions: test compound 1 μM; glucose 5 mM; 30 min at room temperature; absorbance at 340 nm with test compound / without test compound. As for the experimental part:
cDNA encoding human pancreatic GK polypeptide (GenBank Accession No. NM_000162, human glucokinase variant 1) was cloned from a human cDNA library by polymerase chain reaction (PCR), and introduced into a glutathione S-transferase (GST)-fused protein expression vector (GEX4T, GE Healthcare Bioscience). The vector was introduced into Escherichia coli (such as BL21 or JM109, Invitrogen), and the transformed E. coli was cultured overnight at 37° C. followed by recovery of the cells. After freezing and thawing the recovered cells, the cells were suspended in phosphate buffer containing Triton-X at a final concentration of 1% followed by disrupting the cells with an ultrasonic homogenizer. The supernatant obtained by low-speed centrifugation treatment of the homogenate (10,000×g, 30 minutes) was further subjected to high-speed centrifugation (100,000×g, 10 minutes) followed by recovering the supernatant and purifying the fused protein using a GST fused protein purification system (Bulk GST Purification Module, GE Healthcare Bioscience). The GK fused protein was divided into smaller aliquots and stored at −80° C.
GK activity was measured using the GK purified in (1) above. More specifically, an enzyme solution was prepared by adding the purified GK of (1) above and glucose-6-phosphate dehydrogenase (Sigma) to solution 1 of a glucose assay kit (D-Glucose UV Method, Roche Diagnostics). The enzyme solution, a test compound diluent and glucose (final concentration: 5 mM) were mixed in a 96-well ELISA plate, and allowed to react for 30 minutes at room temperature. Following completion of the reaction, absorbance at a wavelength of 340 nm was measured using SpectraMax Plus (Molecular Probe). Furthermore, unreacted (when glucose was not added) absorbance was used for the background.
GK activation rates were indicated with values represented by the following numerical formula: (absorbance after reacting for 30 minutes when test compound added)/(absorbance after reacting for 30 minutes when test compound not added).

Turning to `COC[C@H](C)Oc1cc(Oc2ccc(S(C)(=O)=O)cc2)cc(-c2ccc(C(C)=O)[nH]2)c1` [Example 15, 1-(5-{3-[(1S)-2-Methoxy-1-methylethoxy]-5-[4-(methylsulfonyl)phenoxy]phenyl}-1H-pyrrol-2-yl)ethanone], the “GK Activation Rate” value turned out to be 1.6.
The value for `C[C@@H](CO)Oc1cc(Oc2ccc(S(C)(=O)=O)cc2)cc(-c2ccc(-c3nccs3)[nH]2)c1` [Example 2, (2S)-2-{3-[4-(Methylsulfonyl)phenoxy]-5-[5-(1,3-thiazol-2-yl)-1H-pyrrol-2-yl]phenoxy}propan-1-ol] was 1.9; that for `C[C@H]1CN=C(c2ccc(-c3cc(Oc4ncc(C(=O)N5CCC5)cc4Cl)cc(O[C@@H](C)CO)c3)[nH]2)O1` [Example 75, (2S)-2-(3-{[5-(Azetidin-1-ylcarbonyl)-3-chloropyridin-2-yl]oxy}-5-{5-[(5S)-5-methyl-4,5-dihydro-1,3-oxazol-2-yl]-1H-pyrrol-2-yl}phenoxy)propan-1-ol] was 1.8; that for `C[C@H]1CN=C(c2ccc(-c3cc(Oc4cnc(S(C)(=O)=O)cn4)cc(O[C@@H](C)CO)c3)[nH]2)O1` [Example 100, (2S)-2-(3-{5-[(5S)-5-Methyl-4,5-dihydro-1,3-oxazol-2-yl]-1H-pyrrol-2-yl}-5-{[5-(methylsulfonyl)pyrazin-2-yl]oxy}phenoxy)propan-1-ol] was 1.9.
As for `Cc1nnc(-c2ccc(-c3cc(Oc4cnc(S(C)(=O)=O)cn4)cc(O[C@@H](C)CO)c3)[nH]2)o1` [Example 98, (2S)-2-(3-[5-(5-Methyl-1,3,4-oxadiazol-2-yl)-1H-pyrrol-2-yl]-5-{[5-(methylsulfonyl)pyrazin-2-yl]oxy}phenoxy)propan-1-ol], the figure is 1.9.
On to `CC[C@@H]1COC(c2ccc(-c3cc(Oc4ccc(S(C)(=O)=O)nc4)cc(O[C@@H](C)CO)c3)[nH]2)=N1` [Example 85, (2S)-2-(3-{5-[(4R)-4-Ethyl-4,5-dihydro-1,3-oxazol-2-yl]-1H-pyrrol-2-yl}-5-{[6-(methylsulfonyl)pyridin-3-yl]oxy}phenoxy)propan-1-ol], for which the “GK Activation Rate” value came to 2.9.
With `COC[C@H](C)Oc1cc(Oc2cnc(S(C)(=O)=O)cn2)cc(-c2ccc(C3=N[C@H](CO)[C@H](C)O3)[nH]2)c1` [Example 110, {(4R,5S)-2-[5-(3-{[(2S)-1-Methoxypropan-2-yl]oxy}-5-{[5-(methylsulfonyl)pyrazin-2-yl]oxy}phenyl)-1H-pyrrol-2-yl]-5-methyl-4,5-dihydro-1,3-oxazol-4-yl}methanol], the “GK Activation Rate” value worked out at 2.4.
In the case of `Cc1nnc(-c2ccc(-c3cc(Oc4ccc(C(=O)N5CCC5)cc4F)cc(O[C@@H](C)CO)c3)[nH]2)o1` [Example 67, (2S)-2-{3-[4-(Azetidin-1-ylcarbonyl)-2-fluorophenoxy]-5-[5-(5-methyl-1,3,4-oxadiazol-2-yl)-1H-pyrrol-2-yl]phenoxy}propan-1-ol], the “GK Activation Rate” value is given as 1.7.
As for `C[C@@H]1OC(c2ccc(-c3cc(Oc4cnc(S(C)(=O)=O)cn4)cc(O[C@@H](C)CO)c3)[nH]2)=N[C@@H]1C` [Example 109, (2S)-2-(3-{5-[(4R,5S)-4,5-Dimethyl-4,5-dihydro-1,3-oxazol-2-yl]-1H-pyrrol-2-yl}-5-{[5-(methylsulfonyl)pyrazin-2-yl]oxy}phenoxy)propan-1-ol], the “GK Activation Rate” value is 2.2.
For `COC[C@H](C)Oc1cc(Oc2cnc(S(C)(=O)=O)cn2)cc(-c2ccc(C3=NC(O)[C@H](C)O3)[nH]2)c1` (stereo partly drawn) [Example 103, (5S)-2-[5-(3-[(1S)-2-Methoxy-1-methylethoxy]-5-{[5-(methylsulfonyl)pyrazin-2-yl]oxy}phenyl)-1H-pyrrol-2-yl]-5-methyl-4,5-dihydro-1,3-oxazol-4-ol], the “GK Activation Rate” value is 2.1.
As for `COC[C@H](C)Oc1cc(Oc2ccc(S(C)(=O)=O)cc2)cc(-c2ccc(C3=NC[C@H](CO)O3)[nH]2)c1` [Example 35, [(5R)-2-(5-{3-[(1S)-2-Methoxy-1-methylethoxy]-5-[4-(methylsulfonyl)phenoxy]phenyl}-1H-pyrrol-2-yl)-4,5-dihydro-1,3-oxazol-5-yl]methanol], the figure is 2.1; as for `Cc1nnc(-c2ccc(-c3cc(Oc4ccc(S(C)(=O)=O)nc4)cc(O[C@@H](C)CO)c3)[nH]2)o1` [Example 81, (2S)-2-(3-[5-(5-Methyl-1,3,4-oxadiazol-2-yl)-1H-pyrrol-2-yl]-5-{[6-(methylsulfonyl)pyridin-3-yl]oxy}phenoxy)propan-1-ol], 2.2.
With `COC[C@H](C)Oc1cc(Oc2ccc(S(C)(=O)=O)cc2)cc(-c2ccc(C3=NCCS3)[nH]2)c1` [Example 25, 2-(5-{3-[(1S)-2-Methoxy-1-methylethoxy]-5-[4-(methylsulfonyl)phenoxy]phenyl}-1H-pyrrol-2-yl)-4,5-dihydro-1,3-thiazole], the “GK Activation Rate” value is given as 2.0.
For the compound `COC[C@H](C)Oc1cc(Oc2ccc(S(C)(=O)=O)nc2)cc(-c2ccc(C3=NC[C@H](C)O3)[nH]2)c1` [Example 76, 5-(3-[(1S)-2-Methoxy-1-methylethoxy]-5-{5-[(5S)-5-methyl-4,5-dihydro-1,3-oxazol-2-yl]-1,4-pyrrol-2-yl}phenoxy)-2-(methylsulfonyl)pyridine], the “GK Activation Rate” value is recorded as 3.0.
Turning to `CNS(=O)(=O)c1ccc(Oc2cc(O[C@@H](C)COC)cc(-c3ccc(C4=NC[C@H](CO)O4)[nH]3)c2)cn1` [Example 127, 5-(3-{5-[(5R)-5-(Hydroxymethyl)-4,5-dihydro-1,3-oxazol-2-yl]-1H-pyrrol-2-yl}-5-[(1S)-2-methoxy-1-methylethoxy]phenoxy)-N-methylpyridine-2-sulfonamide], the “GK Activation Rate” value was 2.4.
The value for `COC[C@H](C)Oc1cc(Oc2ccc(C(=O)N3CCC3)cc2F)cc(-c2ccc(-c3nccs3)[nH]2)c1` [Example 41, 2-(5-{3-[4-(Azetidin-1-ylcarbonyl)-2-fluorophenoxy]-5-[(1S)-2-methoxy-1-methylethoxy]phenyl}-1H-pyrrol-2-yl)-1,3-thiazole] was 2.1; that for `COC[C@H](C)Oc1cc(Oc2ccc(S(C)(=O)=O)cc2)cc(-c2ccc(C3=NCCO3)[nH]2)c1` [Example 20, 2-(5-{3-[(1S)-2-Methoxy-1-methylethoxy]-5-[4-(methylsulfonyl)phenoxy]phenyl}-1H-pyrrol-2-yl)-4,5-dihydro-1,3-oxazole] was 2.0.
As for `C[C@@H](CO)Oc1cc(Oc2ccc(S(C)(=O)=O)cc2)cc(-c2ccc(C3=NCCS3)[nH]2)c1` [Example 26, (2S)-2-{3-[5-(4,5-Dihydro-1,3-thiazol-2-yl)-1H-pyrrol-2-yl]-5-[4-(methylsulfonyl)phenoxy]phenoxy}propan-1-ol], the figure is 2.3.
The value for `CC[C@@H]1COC(c2ccc(-c3cc(Oc4cnc(S(C)(=O)=O)cn4)cc(O[C@@H](C)CO)c3)[nH]2)=N1` [Example 108, (2S)-2-(3-{5-[(4R)-4-Ethyl-4,5-dihydro-1,3-oxazol-2-yl]-1H-pyrrol-2-yl}-5-{[5-(methylsulfonyl)pyrazin-2-yl]oxy}phenoxy)propan-1-ol] was 2.0; that for `COC[C@H](C)Oc1cc(Oc2ccc(S(C)(=O)=O)nc2)cc(-c2ccc(C3=N[C@H](C)[C@H](CO)O3)[nH]2)c1` [Example 89, {(4R,5R)-2-[5-(3-[(1S)-2-Methoxy-1-methylethoxy]-5-{[6-(methylsulfonyl)pyridin-3-yl]oxy}phenyl)-1H-pyrrol-2-yl]-4-methyl-4,5-dihydro-1,3-oxazol-5-yl}methanol] was 2.3; that for `COC[C@H](C)Oc1cc(Oc2ccc(C(=O)N3CCCC3)cc2F)cc(-c2ccc(-c3nccs3)[nH]2)c1` [Example 47, 2-(5-{3-[2-Fluoro-4-(pyrrolidin-1-ylcarbonyl)phenoxy]-5-[(1S)-2-methoxy-1-methylethoxy]phenyl}-1H-pyrrol-2-yl)-1,3-thiazole] was 2.0.
Consider `COC[C@H](C)Oc1cc(Oc2cnc(S(C)(=O)=O)cn2)cc(-c2ccc(C3=NC[C@H](CO)O3)[nH]2)c1` [Example 101, {(5R)-2-[5-(3-[(1S)-2-Methoxy-1-methylethoxy]-5-{[5-(methylsulfonyl)pyrazin-2-yl]oxy}phenyl)-1H-pyrrol-2-yl]-4,5-dihydro-1,3-oxazol-5-yl}methanol], for which the “GK Activation Rate” value was 1.9.
